Here are results for one substance from US7452965B2, “Colon tumor specific binding peptides” (University of Utah Research Foundation, priority 2002, dated 2008).

“Also recorded” adds a separate entry of the source. Ends that are not written are not given here.

The subject of test [1] is HT29 cells. The test is described as follows: RPM-FITC immunofluorescence staining of cultured cells (confocal microscopy). It is filed as cell-based. To be noted: for localisation of peptide in HT29 cells: 100 uM, 1 hour. How it is done: (§1) Cell Culture: HT29, HCT116, or a 50% mixture of HT29 and HCT116 cells were plated on glass slides (Nalge). Wells were incubated with 10 μM of RPM-FITC peptide for 45 minutes at 4° C. or 37° C. After washing with wash buffer, cells were blocked with 1% NGS, 0.1% BSA, 0.1% Triton-X100 in PBS. Following the blocking step, wells were incubated with the polyclonal p53 antibody, D10, (Santa Cruz) for 1 hour at room temperature. The wells were washed and incubated with the secondary antibodies GαFITC Alexa 488 (Molecular Probes) and GαMouse Alexa 647 (Molecular Probes) and the nuclear stain Topro-3 (Molecular Probes). Wells were washed and mounted using Pro-Long Anti-fade (Molecular Probes). Slides were analyzed by confocal microscopy.
The peptide then was tested to determine whether it was able to differentiate HT29 from HCT116 cells. In order to distinguish HT29 from HCT116 cells in our immunohistochemical assays, staining was carried out in the presence of the transcription factor, p53. Staining for the protein p53 is a way to visually discriminate HT29 from HCT116 cells, since p53 is mutated and accumulates in HT29 cells but is wild type in HCT116 cells and thus, is rapidly degraded. […] To test the ability of the fluorescein conjugated peptide (RPM-FITC) to preferentially bind HT29 cells, HT29 and HCT116 cells were stained with RPM-FITC. […] When a mixture of HT29 and HCT116 cells was incubated with RPM-FITC and concurrently analyzed for the presence of p53, cells with the highest level of p53 protein also bound RPM-FITC (FIG. 5A).
The ability of a molecule to translocate across the cell membrane is important for drug delivery. HT29 cells were incubated for 1 hour at either 4° C. or 37° C. in the presence of 100 uM RPM-FITC. After incubation, cells were washed, fixed with 2% paraformaldehyde, then incubated with an anti-FITC secondary antibody to amplify the fluorescence signal.

The subject of test [2] is human colon tumor. The test is described as follows: Peptide-binding assay on frozen tissue sections. To be noted: frozen sections, 4° C. On the procedure:
(§2) A biopsy of sporadic colon adenocarcinoma, liver and lung sarcoma, and grossly uninvolved colon, liver, lung, and stomach were frozen in optimum cutting temperature (OCT) and […] cryostat sections placed on glass slides. Sections were stained with H&E and untreated adjacent sections were incubated with RPM-FITC. After incubating with RPM-FITC in binding buffer for 45 minutes at 4° C., slides were washed and mounted using Pro-Long Anti-Fade (Molecular Probes). Nuclei were visualized by a quick incubation with Topro-3 (Molecular Probes) present in the last wash. Samples were analyzed by confocal microscopy.

Test [3] concerns HCT116 cells. The test is described as follows: RPM-FITC immunofluorescence staining of cultured cells (confocal microscopy). To be noted: 1 hour at 4° C. Format: cell-based. How it is done: as §1, with “Wells were incubated with 10 μM of RPM-FITC peptide for 45 minutes at 4° C. or 37° C.” left out
The peptide then was tested to determine whether it was able to differentiate HT29 from HCT116 cells. In order to distinguish HT29 from HCT116 cells in our immunohistochemical assays, staining was carried out in the presence of the transcription factor, p53. Staining for the protein p53 is a way to visually discriminate HT29 from HCT116 cells, since p53 is mutated and accumulates in HT29 cells but is wild type in HCT116 cells and thus, is rapidly degraded. […] When a mixture of HT29 and HCT116 cells was incubated with RPM-FITC and concurrently analyzed for the presence of p53, cells with the highest level of p53 protein also bound RPM-FITC (FIG. 5A).

Test [4] deals with lung and liver cancer, grossly uninvolved lung, liver, and stomach. The test is described as follows: Peptide-binding assay on frozen tissue sections. Also noted: species or system human. The conditions noted are these: cryostat sections. On the procedure: as §2
To determine whether RPM-FITC was able to bind cancers originated from tissues other than colon or to other normal tissues, a peptide-binding assay was performed on cryostat sections of lung and liver cancer, and grossly uninvolved lung, liver, and stomach. As a positive control, a section of colon tumor was stained in parallel with the other sections. […] Binding to HT29 Cells is Dependent on the Amino Acids, RPMC-C (SEQ ID NO: 136).

The test system of test [5] is grossly uninvolved normal colon. The test is described as follows: Peptide-binding assay on frozen tissue sections. Also noted: species or system human. On the procedure: as §2

With “RPM-FITC: fluorescein conjugated peptide (RPM-FITC) (CPIEDRPMC; cysteine pairing not given here; also: fluorescein (FITC) conjugated, position not given here)”, the “localisation of peptide in HT29 cells” value was “confined to the cell surface” in test [1] (4° C.) and “diffuse staining throughout the cells” in test [1] (37° C.). Further, the “RPM-FITC staining of HT29 cells” value in test [1] (1 hour at 4° C.) is given as “showed fluorescence”. For the same substance, the entries for the “binding/staining of human colon tumor sections” value in test [2] and in test [2] (listed as FITC-conjugated RPM) were “preferential binding; also recorded: bright staining” and “showed binding”, respectively. For the same substance, the “RPM-FITC staining of HCT116 cells” value in test [3] was “little or no fluorescence”. The “labeling of lung and liver cancer and uninvolved lung, liver, stomach” value in test [4] is reported as “no labeling”. In test [5], the “binding to adjacent normal colon tissue” value is recorded as “no binding”.
